Results published in ChEMBL document CHEMBL1126056, “Asymmetric synthesis of 1,3-dioxolane-pyrimidine nucleosides and their anti-HIV activity” (J Med Chem, 1992).

Columns and labels:
Vero = assay: Cytotoxicity in vero cells.; format: functional, cell-based; conditions: Chlorocebus sabaeus
[1] = Cytotoxicity in peripheral blood mononuclear cells (PBM).; format: functional, cell-based; conditions: Homo sapiens
[2] = Effective concentration against HIV-1 in peripheral blood mononuclear cells (PBM).; format: functional, Homo sapiens
[3] = Cytotoxicity in peripheral blood mononuclear; format: functional, Homo sapiens
[4] = Effective concentration against HIV-1 in peripheral blood mononuclear cells(PBM).; format: functional, Homo sapiens
[5] = Cytotoxicity in peripheral blood mononuclear cells(PBM).; format: functional, cell-based; conditions: Homo sapiens
[6] = The compound was tested for antiviral activity against AZT resistant strain 9F HIV in PBM cells.; format: functional, cell-based; conditions: Homo sapiens, PBMC
[7] = The compound was tested for antiviral activity against AZT sensitive 10 HIV in PBM cells.; format: functional; conditions: Homo sapiens, PBMC
[8] = The compound was tested for antiviral activity against AZT sensitive strain 9F HIV in PBM cells.; format: functional, cell-based; conditions: Homo sapiens, PBMC
[9] = The compound was tested for antiviral activity against AZT resistant strain 10 HIV in PBM cells.; format: functional; conditions: Homo sapiens, PBMC

Row | SMILES | EC50 [2] | IC50 (Vero) | IC50 [1] | other results
1 | O=c1[nH]c(=O)n([C@@H]2CO[C@@H](CO)O2)cc1I | > 100 µM | > 100 µM | > 100 µM | –
2 | O=c1[nH]c(=O)n([C@@H]2CO[C@@H](CO)O2)cc1Cl | > 100 µM | > 100 µM | > 100 µM | –
3 | O=c1[nH]c(=O)n([C@@H]2CO[C@@H](CO)O2)cc1F | > 100 µM | > 100 µM | > 100 µM | –
4 | O=c1[nH]c(=O)n([C@H]2CO[C@@H](CO)O2)cc1Br | – | > 100 µM | – | EC50 [4]: 9.3 µM; IC50 [5]: > 100 µM
5 | O=c1[nH]c(=O)n([C@@H]2CO[C@@H](CO)O2)cc1Br | – | > 100 µM | – | EC50 [4]: > 100 µM; IC50 [5]: > 100 µM
6 | O=c1ccn([C@@H]2CO[C@@H](CO)O2)c(=O)[nH]1 | > 100 µM | > 100 µM | > 100 µM | –
7 | Cc1cn([C@H]2C[C@H](N=[N+]=[N-])[C@@H](CO)O2)c(=O)[nH]c1=O [ZIDOVUDINE] | – | 28 µM | > 100 µM | EC50 [6]: 1.2 µM; EC90 [7]: 0.0065 µM; EC50 [8]: 0.0012 µM; EC90 [9]: 19 µM; EC50 [4]: 0.009 µM

Second part, led by results:

Row | EC50 [2] | SMILES | IC50 (Vero) | IC50 [1] | other results
8 | > 100 µM | O=c1[nH]c(=O)n([C@H]2CO[C@@H](CO)O2)cc1I | > 100 µM | > 100 µM | –
9 | > 100 µM | O=c1ccn([C@H]2CO[C@@H](CO)O2)c(=O)[nH]1 | > 100 µM | > 100 µM | –
10 | 6.8 µM | O=c1[nH]c(=O)n([C@H]2CO[C@@H](CO)O2)cc1Cl | > 100 µM | – | IC50 [3]: > 100 µM
11 | 0.16 µM | Nc1ccn([C@H]2CO[C@@H](CO)O2)c(=O)n1 | 8.3 µM | 62 µM | –
12 | 2.4 µM | Nc1ccn([C@@H]2CO[C@@H](CO)O2)c(=O)n1 | > 100 µM | > 100 µM | –
13 | 69.6 µM | O=c1[nH]c(=O)n([C@H]2CO[C@@H](CO)O2)cc1F | > 100 µM | > 100 µM | –
